# Source: patent publication US20090252673A1, “Methods of Making and Using Rubidium-81-Containing Compositions” (priority 2006, published 2009)
# Experiments:
# [1] = tested on: rat heart (myocardium), normal and occlusion/reperfusion; assay: Imaging of rat hearts using a small animal PET scanner; format: in vivo, female Wistar rats
# Experimental: For the PET measurements, a microPET FOCUS 120 small animal scanner (Siemens Medical Solutions USA, Inc.) was used. Imaging was done on 4 female Wistar rats (200-250 g) (see Tab. 1). […] After 5 min, the occlusion was removed and dynamic PET images of the animals were taken for 4 h and 2 h. Two rats were used as controls without occlusion (rest). The first rat was injected with 20.2 MBq Rb-81 and the second rat with 69.3 MBq Rb-81, in 500 μl isotonic saline. Following injection, dynamic PET images of the animals were taken for 4 h (S1#1 und S1#2) and 2 h (S2#3 and S2#4). The Rb-81 solution was injected intravenously in the lateral tail vein of all animals. For occlusion, a 7-0 polypropylene suture on a small curved needle was passed through the left coronary artery (LCA), and ligated to occlude the LCA. After tracer injection, reperfusion was obtained by cutting the suture. LCA occlusion and reperfusion were confirmed by the color change of myocardial surface. […]
# After PET imaging, all animals were sacrificed by carbon dioxide inhalation and the organs of interest (see above) were dissected, weighed and measured for activity using a well-type g-counter. […] All data are expressed as percent of the injected dose per gram tissue (% ID/g, mean±SD). […]
# [2] = Biodistribution of Rb-81 in rats; format: in vivo, female Wistar rats; settings: mean±SD, n=3
# Experimental: 1.85-5.33 MBq (50-144 μCi) Rb-81 in 250 μl isotonic saline was injected into the lateral tail vein of 24 non-fasted female Wistar rats weighing 180-220 g (12 animals at each day).
# All the animals were anesthesized with Isofluran (1.5 vol. % and 2.01/min 02) during the injection of the Rb-81 solution. 5 min, 10 min, 20 min, 30 min, 45 min, 1 h, 2 h and 4 h post injection of the Rb-81 solution, the animals were sacrificed by carbon dioxide inhalation (n=3 animals for all time points).
# The organs of interest (heart, blood, lungs, liver, stomach, spleen, pancreas, small intestine, colon, kidney, adrenal gland, muscle, bone, brain and tail) were dissected, weighed and measured for activity using a well-type g-counter. Tracer accumulation was normalized to the organ weights. All data are expressed as percent of the injected dose per gram tissue (% ID/g, mean±SD).
# [3] = tested on: occlusion/reperfusion rat heart model; assay: Ex vivo dual tracer autoradiography, Tl-201 and Rb-81 redistribution kinetics; format: in vivo, rats; settings: for activity in occluded areas, percent of the uptake in normal tissues: 20 μm heart slices, phosphor-imager ROIs
# Experimental: Three additional rats were simultaneously injected with 20 MBq Rb-81 and 2.7 MBq Tl-201. After the occlusion/injection/reperfusion procedure was completed (see FIG. 8), the animals were sacrificed at 0, 15 and 45 min after initiating the reperfusion.
# After the hearts of the animals were removed and freshly frozen in liquid nitrogen, they were sliced into short axis 20 μm slices. Radioactivity in the tissues sections was determined by using a phosphor-imager. Rb-81 was measured over a period of 3 h directly after preparation of the slices, whereas the Tl-201 activity was determined after the Rb-81 activity was almost completed (Rb-81: t1/2=4.58 h versus a 4 day decay period).
# Quantitative evaluations were carried out by comparison of the detected counts within regions-of-interest in both, normal tissue areas and occluded tissues areas. Comparisons are given in percent of normal heart tissue.
# [4] = 5 min after application into the tail vein
# [5] = 10 min after application into the tail vein
# [6] = 20 min after application into the tail vein
# [7] = 30 min after application into the tail vein
# [8] = 45 min after application into the tail vein
# [9] = 60 min after application into the tail vein
# [10] = 120 min after application into the tail vein
# [11] = 240 min after application into the tail vein
smiles,measurement,setting,value
"[81Rb] [Rb-81, Rubidium-81]",uptake in the myocardium,"[1]; PET summation images, rat",highest shortly after administration
same,period after re-opening of the occlusion over which filling in of the defect takes place (redistribution),"[1]; PET, rat with temporary coronary artery occlusion",40 to 50 min
same,"biodistribution, Adrenals",[2]; [4],3.68 ± 0.89 % ID/g
same,"biodistribution, Blood",[2]; [4],0.25 ± 0.07 % ID/g
same,"biodistribution, Bone",[2]; [4],0.48 ± 0.10 % ID/g
same,"biodistribution, Brain",[2]; [4],0.10 ± 0.02 % ID/g
same,"biodistribution, Heart",[2]; [4],4.18 ± 0.18 % ID/g
same,"biodistribution, Kidney",[2]; [4],9.21 ± 0.98 % ID/g
same,"biodistribution, Large Intestine",[2]; [4],1.03 ± 0.82 % ID/g
same,"biodistribution, Liver",[2]; [4],1.25 ± 0.05 % ID/g
same,"biodistribution, Lung",[2]; [4],2.09 ± 0.43 % ID/g
same,"biodistribution, Muscle",[2]; [4],0.18 ± 0.02 % ID/g
same,"biodistribution, Pancreas",[2]; [4],1.81 ± 0.20 % ID/g
same,"biodistribution, Small Intestine",[2]; [4],4.06 ± 0.91 % ID/g
same,"biodistribution, Spleen",[2]; [4],1.45 ± 0.30 % ID/g
same,"biodistribution, Stomach",[2]; [4],0.80 ± 0.41 % ID/g
same,"biodistribution, Adrenals",[2]; [5],3.44 ± 1.07 % ID/g
same,"biodistribution, Blood",[2]; [5],0.22 ± 0.04 % ID/g
same,"biodistribution, Bone",[2]; [5],0.66 ± 0.09 % ID/g
same,"biodistribution, Brain",[2]; [5],0.09 ± 0.03 % ID/g
same,"biodistribution, Heart",[2]; [5],4.30 ± 0.68 % ID/g
same,"biodistribution, Kidney",[2]; [5],6.96 ± 1.39 % ID/g
same,"biodistribution, Large Intestine",[2]; [5],1.22 ± 0.05 % ID/g
same,"biodistribution, Liver",[2]; [5],2.37 ± 0.20 % ID/g
same,"biodistribution, Lung",[2]; [5],1.74 ± 0.18 % ID/g
same,"biodistribution, Muscle",[2]; [5],0.31 ± 0.12 % ID/g
same,"biodistribution, Pancreas",[2]; [5],2.70 ± 0.02 % ID/g
same,"biodistribution, Small Intestine",[2]; [5],3.47 ± 0.33 % ID/g
same,"biodistribution, Spleen",[2]; [5],1.88 ± 0.21 % ID/g
same,"biodistribution, Stomach",[2]; [5],0.63 ± 0.26 % ID/g
same,"biodistribution, Adrenals",[2]; [6],2.92 ± 0.45 % ID/g
same,"biodistribution, Blood",[2]; [6],0.21 ± 0.04 % ID/g
same,"biodistribution, Bone",[2]; [6],0.65 ± 0.15 % ID/g
same,"biodistribution, Brain",[2]; [6],0.11 ± 0.02 % ID/g
same,"biodistribution, Heart",[2]; [6],2.55 ± 0.47 % ID/g
same,"biodistribution, Kidney",[2]; [6],2.90 ± 0.51 % ID/g
same,"biodistribution, Large Intestine",[2]; [6],0.70 ± 0.07 % ID/g
same,"biodistribution, Liver",[2]; [6],2.47 ± 0.64 % ID/g
same,"biodistribution, Lung",[2]; [6],1.62 ± 0.46 % ID/g
same,"biodistribution, Muscle",[2]; [6],0.31 ± 0.02 % ID/g
same,"biodistribution, Pancreas",[2]; [6],2.29 ± 0.73 % ID/g
same,"biodistribution, Small Intestine",[2]; [6],2.73 ± 0.64 % ID/g
same,"biodistribution, Spleen",[2]; [6],1.97 ± 0.47 % ID/g
same,"biodistribution, Stomach",[2]; [6],1.20 ± 0.46 % ID/g
same,"biodistribution, Adrenals",[2]; [7],2.08 ± 0.60 % ID/g
same,"biodistribution, Blood",[2]; [7],0.19 ± 0.03 % ID/g
same,"biodistribution, Bone",[2]; [7],0.63 ± 0.03 % ID/g
same,"biodistribution, Brain",[2]; [7],0.09 ± 0.01 % ID/g
same,"biodistribution, Heart",[2]; [7],2.69 ± 0.32 % ID/g
same,"biodistribution, Kidney",[2]; [7],2.91 ± 0.37 % ID/g
same,"biodistribution, Large Intestine",[2]; [7],0.53 ± 0.14 % ID/g
same,"biodistribution, Liver",[2]; [7],2.60 ± 0.43 % ID/g
same,"biodistribution, Lung",[2]; [7],1.73 ± 0.31 % ID/g
same,"biodistribution, Muscle",[2]; [7],0.36 ± 002 % ID/g
same,"biodistribution, Pancreas",[2]; [7],2.12 ± 0.13 % ID/g
same,"biodistribution, Small Intestine",[2]; [7],2.33 ± 0.72 % ID/g
same,"biodistribution, Spleen",[2]; [7],1.26 ± 0.78 % ID/g
same,"biodistribution, Stomach",[2]; [7],0.88 ± 0.24 % ID/g
same,"biodistribution, Adrenals",[2]; [8],1.32 ± 0.88 % ID/g
same,"biodistribution, Blood",[2]; [8],0.15 ± 0.08 % ID/g
same,"biodistribution, Bone",[2]; [8],0.38 ± 0.18 % ID/g
same,"biodistribution, Brain",[2]; [8],0.07 ± 0.03 % ID/g
same,"biodistribution, Heart",[2]; [8],1.58 ± 0.79 % ID/g
same,"biodistribution, Kidney",[2]; [8],1.56 ± 0.77 % ID/g
same,"biodistribution, Large Intestine",[2]; [8],0.47 ± 0.22 % ID/g
same,"biodistribution, Liver",[2]; [8],1.79 ± 1.07 % ID/g
same,"biodistribution, Lung",[2]; [8],1.02 ± 0.45 % ID/g
same,"biodistribution, Muscle",[2]; [8],0.21 ± 0.06 % ID/g
same,"biodistribution, Pancreas",[2]; [8],1.76 ± 0.91 % ID/g
same,"biodistribution, Small Intestine",[2]; [8],1.45 ± 0.82 % ID/g
same,"biodistribution, Spleen",[2]; [8],1.27 ± 0.57 % ID/g
same,"biodistribution, Stomach",[2]; [8],0.57 ± 0.24 % ID/g
same,"biodistribution, Adrenals",[2]; [9],1.45 ± 0.43 % ID/g
same,"biodistribution, Blood",[2]; [9],0.17 ± 0.01 % ID/g
same,"biodistribution, Bone",[2]; [9],0.54 ± 0.16 % ID/g
same,"biodistribution, Brain",[2]; [9],0.08 ± 0.02 % ID/g
same,"biodistribution, Heart",[2]; [9],1.48 ± 0.41 % ID/g
same,"biodistribution, Kidney",[2]; [9],1.45 ± 0.14 % ID/g
same,"biodistribution, Large Intestine",[2]; [9],0.53 ± 0.20 % ID/g
same,"biodistribution, Liver",[2]; [9],2.25 ± 0.77 % ID/g
same,"biodistribution, Lung",[2]; [9],1.00 ± 0.44 % ID/g
same,"biodistribution, Muscle",[2]; [9],0.35 ± 0.14 % ID/g
same,"biodistribution, Pancreas",[2]; [9],1.99 ± 0.73 % ID/g
same,"biodistribution, Small Intestine",[2]; [9],1.25 ± 0.34 % ID/g
same,"biodistribution, Spleen",[2]; [9],1.43 ± 0.41 % ID/g
same,"biodistribution, Stomach",[2]; [9],0.64 ± 0.31 % ID/g
same,"biodistribution, Adrenals",[2]; [10],0.56 ± 0.22 % ID/g
same,"biodistribution, Blood",[2]; [10],0.10 ± 0.05 % ID/g
same,"biodistribution, Bone",[2]; [10],0.33 ± 0.12 % ID/g
same,"biodistribution, Brain",[2]; [10],0.06 ± 0.03 % ID/g
same,"biodistribution, Heart",[2]; [10],0.67 ± 0.21 % ID/g
same,"biodistribution, Kidney",[2]; [10],0.76 ± 0.27 % ID/g
same,"biodistribution, Large Intestine",[2]; [10],0.36 ± 0.24 % ID/g
same,"biodistribution, Liver",[2]; [10],1.32 ± 0.73 % ID/g
same,"biodistribution, Lung",[2]; [10],0.60 ± 0.23 % ID/g
same,"biodistribution, Muscle",[2]; [10],0.24 ± 0.13 % ID/g
same,"biodistribution, Pancreas",[2]; [10],1.31 ± 0.66 % ID/g
same,"biodistribution, Small Intestine",[2]; [10],0.83 ± 0.37 % ID/g
same,"biodistribution, Spleen",[2]; [10],0.88 ± 0.42 % ID/g
same,"biodistribution, Stomach",[2]; [10],0.34 ± 0.15 % ID/g
same,"biodistribution, Adrenals",[2]; [11],0.75 ± 0.07 % ID/g
same,"biodistribution, Blood",[2]; [11],0.20 ± 0.01 % ID/g
same,"biodistribution, Bone",[2]; [11],0.61 ± 0.04 % ID/g
same,"biodistribution, Brain",[2]; [11],0.13 ± 0.01 % ID/g
same,"biodistribution, Heart",[2]; [11],0.81 ± 0.02 % ID/g
same,"biodistribution, Kidney",[2]; [11],0.90 ± 0.04 % ID/g
same,"biodistribution, Large Intestine",[2]; [11],0.59 ± 0.05 % ID/g
same,"biodistribution, Liver",[2]; [11],1.90 ± 0.03 % ID/g
same,"biodistribution, Lung",[2]; [11],0.79 ± 0.05 % ID/g
same,"biodistribution, Muscle",[2]; [11],0.61 ± 0.11 % ID/g
same,"biodistribution, Pancreas",[2]; [11],1.65 ± 0.20 % ID/g
same,"biodistribution, Small Intestine",[2]; [11],0.89 ± 0.02 % ID/g
same,"biodistribution, Spleen",[2]; [11],1.34 ± 0.06 % ID/g
same,"biodistribution, Stomach",[2]; [11],0.44 ± 0.15 % ID/g
same,"activity in occluded areas, percent of the uptake in normal tissues",[3]; 0 min p.i.,7%
same,"activity in occluded areas, percent of the uptake in normal tissues",[3]; 15 min p.i.,37%
same,"activity in occluded areas, percent of the uptake in normal tissues",[3]; 45 min p.i.,82%
same,redistribution kinetics,"[3]; compared with Tl-201, occluded heart areas after reperfusion",considerably faster
